According to patent US20150231238A1, “OVERCOMING RESISTANCE TO ERBB PATHWAY INHIBITORS” (MERRIMACK PHARMACEUTICALS, INC., priority 2011, published 2015):

Columns and labels:
BT474-M3 cells = assay: In vitro breast cancer model, viable cell count after 6 days; type: cell-based
[1] = system: BT474-M3 breast cancer xenograft; assay: BT474-M3 breast cancer xenograft model; type: in vivo, mice; settings: MM-111 3 mg/kg every 3 days, trastuzumab 1 mg/kg weekly
Experimental: BT474-M3 cells (2×10^7 cells per mice) are inoculated subcutaneously into Nu/Nu immunodeficient mice, which are implanted with an estrogen pellet (0.72 mg; 60-day release) one day before the experiment. […] Tumors are measured twice a week and the experiment is ended at day 40.

[2] = system: BT474-M3 parental (wild-type) cells; assay: Cell proliferation assay (WST-1), parental cells; type: cell-based; settings: series dilution, five days
Experimental: (§1) After five days of treatment, cell viability is measured by WST-1 (Roche, Cat. #5015944001) according to manufacturer's instructions. Cells treated with control (RPMI1640 with 10% FBS) are set as 100%, other treatments are expressed as percentage of the control.

[3] = system: trastuzumab-resistant BT474-M3 cells; assay: Cell proliferation assay (WST-1), trastuzumab-resistant cells; type: cell-based; settings: series dilution, five days
Experimental: as §1

[4] = system: BT474-M3 wild type cell spheroids; assay: Spheroid assay, parental cells; type: cell-based; settings: series dilution, six days
Experimental: (§2) Cells are cultured for six days. Spheroids are then examined by Nikon microscope and analyzed by MetaMorph® Image Analysis Software (Molecular Devices). The spheroid size from cells cultured in medium containing 10% FBS is set as a control.

[5] = system: trastuzumab-resistant BT474-M3 cell spheroids; assay: Spheroid assay, trastuzumab-resistant cells; type: cell-based
Experimental: as §2

BT474-M3-GFP-HRG tumors = assay: BT474-M3-GFP-HRG tumor xenograft growth; type: in vivo, mice; settings: Example 10; MM-111 48 mpk q3d i.p., tamoxifen 5 mg; versus BT474-M3-GFP
Experimental: 15×10^6 BT474-M3 cells engineered to express GFP (BT474-M3-GFP) or BT474-M3 cells engineered to express GFP and heregulin 1 (BT474-M3-GFP-HRG) were implanted in to the mammary fat pads of estrogen supplemented (0.72 mg 17β-estradiol in a 60-day slow release biodegradable carrier) female NCr/NU-mice (Taconic Farms, Inc). When tumor volumes reached on average 516 mm^3 (BT474-M3-GFP-HRG on day 17 after tumor implantation) or 422 mm^3 (BT474-M3-GFP on day 20 after tumor implantation), mice were segregated into 8 groups of 10-15 mice. Groups received either no treatment (Control), MM-111 (48 mpk q3d i.p. (dose every three days, intraperitoneally)), lapatinib (150 mpk qd p.o. (oral dose daily)), tamoxifen (5 mg free base tamoxifen in a 60-day slow release biodegradable carrier), MM-111 and lapatinib, MM-111 and tamoxifen, lapatinib and tamoxifen or MM-111, lapatinib and tamoxifen. Tumors were measured twice a week with a digital caliber.

[6] = system: ErbB3, Akt and ERK1/2 signaling in BT474-M3-GFP tumors; assay: Target and downstream signaling in BT474-M3-GFP tumor lysates (Luminex, western blot); type: in vivo, mice; settings: end of study tumor lysates
Experimental: (§3) At the end of study (21 or 25 days after initiation of treatment for BT474-M3-GFP-HRG and BT474-M3-GFP, respectively) tumor samples were collected (24 h after the last MM-111 and 6 h after the last lapatinib dose) and analyzed for target and downstream signaling inhibition. Total and phosphorylated ErbB3 and Akt protein levels were analyzed from tumor lysates by suspension array technology (Luminex) and total and phosphorylated Erk1/2 levels by western blot using PCNA to normalize the results.

[7] = system: ErbB3, Akt and ERK1/2 signaling in BT474-M3-GFP-HRG tumors; assay: Target and downstream signaling in BT474-M3-GFP-HRG tumor lysates (Luminex, western blot); type: in vivo, mice; settings: for activity in reducing pErbB3 levels with tumoral HRG expression: versus BT474-M3-GFP; for ratio of pERK and totERK levels / ratio of pErbB3 to total ErbB3 / ratio of phospho-Akt to total Akt: in the presence of HRG
Experimental: as §3

NCI-N87 tumors = settings: paclitaxel 20 mpk q7d, trastuzumab 3.5 mpk q3d, MM-111 48 mpk q3d
Experimental: 7.5×10^6 NCI-N87 cells were implanted subcutaneously in the flanks of female Nu/Nu mice. When tumor volumes reached on average 341 mm^3 (on day 24 after tumor implantation) mice were segregated into 4 groups of 10 mice. […] Tumors were measured twice a week with a digital caliper.

[8] = system: pAKT in heregulin-stimulated BT474-M3 cells; assay: Inhibition of AKT phosphorylation in heregulin-stimulated cells; type: cell-based; settings: dose range
A2780cis cells = assay: Cell Titer Glo cell viability after cisplatin, resistant versus sensitive line; type: cell-based, human; settings: cisplatin 0.01 to 10 μM, 72 hours
Experimental: The A2780 human ovarian cancer cell line was originally established from tumor tissue from an untreated patient. The A2780cis cell line is cisplatin-resistant (Cat. #93112517, Sigma). […] A2780cis is cross-resistant to melphalan, adriamycin and irradiation.
Cell viability is measured using the Cell Titer Glo assay (Cat. # G7570, Promega) according to the manufacturer's instructions.
Cell viability was measured by the Cell Titer Glo assay which measures metabolically active cells by quantitating ATP.

pAKT in A2780 cells = assay: pAKT (ser473) western blot in cisplatin-sensitive cells; type: cell-based, human; settings: cisplatin 0.1 to 10 μM, especially after 24 hours and/or 10 μM
Experimental: (§4) After incubation cell lysates are prepared and analyzed for pAKT (ser473) (Cat #9271 Cell Signaling Technologies) by western blot.
(§5) The effect of MM-121 on the AKT pathway is determined by treating sensitive (A2780) and resistant (A2780cis) cells with a dose range of MM-121 ((0.01 to 1 μM) in vitro for 1, 4, 24 or 72 hours. After incubation cell lysates are prepared and analyzed for pAKT (ser473) (Cat. #9271 Cell Signaling Technologies) by western blot.
(§6) Cell lysates are analyzed by western blot for pAKT.

pAKT in A2780cis cells = assay: pAKT (ser473) western blot in cisplatin-resistant cells; type: cell-based, human; settings: cisplatin 0.1 to 10 μM or MM-121 0.01 to 1 μM, 1, 4, 24 or 72 hours
Experimental: as §4, §5, §6

[9] = system: heregulin-induced phosphorylation of ErbB3, AKT and ERK in ACHN, Du145 and OvCAR8 cells; assay: ELISA of heregulin-induced pErbB3, pAKT and pERK in cell lysates; type: cell-based
Experimental: In the first set of experiments, three cancer cell lines (ACHN (renal cell adenocarcinoma, ATCC® #CRL-1611™), Du145 (prostate carcinoma, ATCC® #HTB-81™) and OvCAR 8 (ovarian adenocarcinoma, ATCC® #HTB-161™) cell lines; obtained from the National Cancer Institute's Developmental Therapeutics Program) were seeded at 35,000 cells per well in 96-well plates and grown overnight (maintenance culture medium was RPMI-1640 media supplemented with 10% fetal calf serum, 2 mM L-glutamine, and Pen-Strep; cells were grown in a humidified atmosphere at 5% CO2, 95% air at 37° C.). Cells were synchronized by 20-24 hour serum starvation. The cells were then pre-incubated with 4-fold serial dilutions, ranging from […] to 7.6 pM, of MM-121 for 30 minutes. […]
For ELISA analysis of cell lysates, capture antibodies against ErbB1 (R&D Systems AF231), ErbB2 (R&D Systems, MAB1129), ErbB3 (R&D Systems, MAB 3481) and AKT (Upstate, 05-591 MG) were incubated in 384 well black flat-bottom polystyrene high-binding plates (Corning, 3708) overnight at room temperature. […] All ELISAs were visualized with SuperSignal® ELISA Pico Chemiluminescent Substrate (Pierce, Cat. #37069) and luminescent signal was measured using a luminometer.
Inhibitor IC50 values were calculated by least-squares fitting the dose response data with a sigmoidal curve (GraphPad Prism®, GraphPad Software, Inc., La Jolla, Calif.).

[10] = system: EGFR wild-type NSCLC cell lines; assay: Spheroid assay (CellTiter Glo live cell density) in EGFR wild-type NSCLC cell lines; type: cell-based
Experimental: The cell lines bear no mutations within their EGFR genes and represent three distinct histological subtypes (see Table X below). Cells harboring Ras mutations are indicated.
Relative live cell densities were then determined using the CellTiter Glo® reagent (Promega).

[11] = in the presence of 5 nM heregulin

## MM-111: bispecific anti-ErbB3, anti-ErbB2 antibody, two scFvs in a Human Serum Albumin conjugate, SEQ ID NO:44
BT474-M3 cells; basal conditions
  inhibition of cell proliferation: 24%
BT474-M3 cells; [11]
  inhibition of cell proliferation: 33%
[1]
  completely regressed tumors: no complete regressions were observed
[2]
  inhibition of cell proliferation: maintained similar inhibitory activity
[3]
  inhibition of cell proliferation: maintained similar inhibitory activity
[4]
  inhibition of spheroid growth: significantly reduced spheroid growth
[5]; in the presence of 100 nM gefitinib
  inhibition of spheroid growth in combination with gefitinib: effective at inhibiting cell growth
[5]; in the presence of 300 nM erlotinib
  inhibition of spheroid growth in combination with erlotinib: effective at inhibiting cell growth
[5]; spheroids
  inhibitory activity in trastuzumab-resistant cells compared with wild-type cells: slightly improved
[5]; trastuzumab-resistant cells, series dilution, six days
  inhibition of spheroid growth: significantly reduced spheroid growth
BT474-M3-GFP-HRG tumors
  effect of tumoral HRG overexpression on efficacy (tumor volume): modestly improved
[6]
  total ErbB3 expression: increased total ErbB3 expression
[7]; end of study tumor lysates
  total ErbB3 expression: increased total ErbB3 expression
  activity in reducing pErbB3 levels with tumoral HRG expression: increased effectiveness
[7]
  ratio of pERK and totERK levels: effective at reducing pERK production in the presence of HRG
  ratio of pErbB3 to total ErbB3: decreased ErbB3 activity even in the presence of HRG
  ratio of phospho-Akt to total Akt: effective at reducing pAkt production in the presence of HRG

## CC(=O)O[C@H]1C(=O)[C@@]2(C)[C@H]([C@H](OC(=O)c3ccccc3)[C@]3(O)C[C@H](OC(=O)[C@H](O)[C@@H](NC(=O)c4ccccc4)c4ccccc4)C(C)=C1C3(C)C)[C@]1(OC(C)=O)CO[C@@H]1C[C@@H]2O [paclitaxel]
NCI-N87 tumors
  tumor growth: only tumor stasis at best

## CS(=O)(=O)CCNCc1ccc(-c2ccc3ncnc(Nc4ccc(OCc5cccc(F)c5)c(Cl)c4)c3c2)o1 [lapatinib, reference compound]
BT474-M3 cells; basal conditions
  inhibition of cell proliferation: 50%
BT474-M3 cells; [11]
  inhibition of cell proliferation: 23%
[8]
  inhibition of AKT phosphorylation: inhibited phosphorylation of AKT
[7]; end of study tumor lysates
  activity in reducing pErbB3 levels with tumoral HRG expression: decreased
[7]
  ratio of pERK and totERK levels: decreased effectiveness
  ratio of pErbB3 to total ErbB3: effectiveness was reduced in the presence of HRG
  ratio of phospho-Akt to total Akt: decreased effectiveness

## CC/C(=C(\c1ccccc1)c1ccc(OCCN(C)C)cc1)c1ccccc1 [tamoxifen, reference compound]
BT474-M3-GFP-HRG tumors
  effect of tumoral HRG overexpression on efficacy (tumor volume): improved

## N.N.[Cl][Pt][Cl] [cisplatin]
A2780cis cells
  cell viability (percentage of media control), A2780cis versus A2780: much greater viability
pAKT in A2780 cells
  pAKT production: decrease in pAKT production
pAKT in A2780cis cells
  pAKT production: no effect on pAKT production

B1: MM-121: fully human anti-ErbB3 antibody, VH and VL sequences SEQ ID NOs: 1 and 2 (antibody, V domains shown)
VH: EVQLLESGGGLVQPGGSLRLSCAASGFTFSHYVMAWVRQAPGKGLEWVSSISSSGGWTLYADSVKGRFTISRDNSKNTLYLQMNSLRAEDTAVYYCTRGLKMATIFDYWGQGTLVTVSS
VL: QSALTQPASVSGSPGQSITISCTGTSSDVGSYNVVSWYQQHPGKAPKLIIYEVSQRPSGVSNRFSGSKSGNTASLTISGLQTEDEADYYCCSYAGSSIFVIFGGGTKVTVL
[9]; MM-121 2 mM to 7.6 pM pre-incubated 30 minutes, 25 nM heregulin 10 minutes, versus HRG control
  inhibition of HRG-induced ErbB3, AKT and ERK phosphorylation: inhibits HRG-induced ErbB3, AKT and ERK phosphorylation
[9]; in most cases
  maximal inhibition of pErbB3, pAKT and pERK relative to unstimulated control: near or below basal signaling levels
[10]; 1 μM MM-121 added to erlotinib 0 to 10 μM, 10 nM HRG, all eight cell lines
  effect on sensitivity of spheroids to erlotinib, dose range: restore sensitivity of the spheroids to erlotinib
[10]; MM-121 1 μM with erlotinib 1 μM, HRG-stimulated cells, all five cell lines
  effect on sensitivity of the cells to erlotinib: greatly improve sensitivity of the cells to erlotinib
pAKT in A2780cis cells
  pAKT production: gradual decrease in pAKT production at all dose levels
